The target of one series is human AT2R fused to Cb23 (Homo sapiens, UniProt P50052). The series can be described thus: Radioligand binding assay, displacement of 125I-[Sar1, Ile8]-Angiotensin II, hAT2R Cb23. The following applies: displacement of 125I-[Sar1, Ile8]-Angiotensin II, human AT2R fused to Cb23, HEK-293 cell membrane preparations; read-out: Binding affinity on hAT2R_Cb23 IC50. The procedure, abridged:
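Membranes from HEK-293 cells expressing human AT2R fused to Cb23 were incubated with 0.05 nM 125I-[Sar1, Ile8]-Angiotensin II in 100 μL buffer (50 mM Tris, 5 mM MgCl2, 1 mM EDTA, 0.1% BSA, pH 7.4) for one hour at 25° C. Ligands were tested as eight-point dose-response curves in duplicate, with C21 and Angiotensin II as references.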

Series [1] can be described thus: Liver microsomal stability, human. Format: in vitro ADME. The following applies: pH 7.4, liver microsomes. The protocol:
(§1) Microsomal incubations were carried out in 96-well plates in 5 aliquots of 40 μL each (one for each time point). Liver microsomal incubation medium contained PBS (100 mM, pH 7.4), MgCl2 (3.3 mM), NADPH (3 mM), glucose-6-phosphate (5.3 mM), glucose-6-phosphate dehydrogenase (0.67 units/ml) with 0.42 mg of liver microsomal protein per ml. Control incubations were performed replacing the NADPH-cofactor system with PBS. Test compound (2 μM, final solvent concentration 1.6%) was incubated with microsomes at 37° C., shaking at 100 rpm. Incubations were performed in duplicates. Five time points over 40 minutes have been analyzed. The reactions were stopped by adding 12 volumes of 90% acetonitrile-water to incubation aliquots, followed by protein sedimentation by centrifuging at 5500 rpm for 3 minutes. […]. Supernatants were analyzed using the HPLC system coupled with tandem mass spectrometer (API3000 PE Sciex). Acquisition and analysis of the data were performed using Analyst 1.5.2 software (PE Sciex). The elimination constant (kel), half-life (t½) and intrinsic clearance (Clint) were determined in plot of […] versus time, using linear regression analysis:
(§2) A 10 mM stock solution of compound in DMSO is diluted three-fold in DMSO. This pre-diluted compound solution is then further diluted to 2 μM in a 50 mM phosphate buffer (PBS, pH 7.4) and pre-warmed at 37° C. This compound dilution is mixed F2 with microsomal/cofactor mix at 37° C. under shaking at 300 rpm. Final reaction conditions are: 100 μL incubation volume, 1 μM of test compound (in duplicate), <0.1% DMSO, 0.5 mg/mL microsomes, 0.6 U/mL Glucose-6-phosphate-dehydrogenase (G6PDH, Roche, 10127671001), 3.3 mM MgCl2 (Sigma, M2670), 3.3 mM glucose-6-phosphate (Sigma, G-7879) and 1.3 mM NADP+ (Sigma, N-0505).
(§3) After 60 min of incubation at 300 rpm and 37° C., the reaction was stopped with 3 volumes of STOP solution (acetonitrile/MeOH 2/1 with diclofenac as internal standard). For the time point zero, 3 volumes of STOP solution were added to the compound dilution before the microsome mix was added. Six time points over 60 minutes have been analyzed. The samples of all time points were centrifuged, filtered and the supernatant analyzed by LCMS/MS (systems API4000).
(§4) The instrument responses (peak areas/IS peak area) were referenced to the zero time-point samples (considered as 100%) in order to determine the percentage of compound remaining.
(§5) Testosterone (1 μM) and Propranolol and Caffeine (1 μM) were used as reference compounds, being unstable and stable compounds respectively. If the microsomal stability values for these controls are not in the range determined by the historical data, the assay is not validated. The solubility of the compound in the final test concentration in 50 mM buffer pH 7.4 is checked by microscope to indicate whether precipitation is observed or not. If a precipitate is observed, no data of microsomal stability is generated.

Series [2] is described as follows: Liver microsomal stability, rat. Format: in vitro ADME. The following applies: male, pH 7.4, liver microsomes. The method, then: (§6) Mouse hepatic microsomes were isolated from pooled (50), perfused livers of male Balb/c mice. Rat hepatic microsomes were isolated from pooled (15), perfused livers of male Wistar rats. Isolation was performed according to the standard protocol (Hill, J. R. in Current Protocols in Pharmacology 7.8.1-7.8.11, Wiley Interscience, 2003). The batches of microsomes were tested for quality control using Imipramine, Propranolol and Verapamil as reference compounds.
as §1
(§7) Mouse hepatic microsomes were isolated from pooled, perfused livers of male CD1 mice. Rat hepatic microsomes were isolated from pooled, perfused livers of male Sprague Dawley rats. Dog hepatic microsomes were isolated from pooled, perfused livers of male Beagle dogs. The batches of microsomes were tested for quality control using Testosterone, Propranolol and Caffeine as reference compounds.
as §2, §3, §4, §5

A short description of series [3]: Liver microsomal stability, mouse. In kind it is in vitro ADME. The following applies: male, pH 7.4, liver microsomes. The protocol: as §6, §1, §7, §2, §3, §4, §5
The next series deals with human AT1R (Homo sapiens (Human), UniProt P30556). The series can be described thus: Counterscreen radioligand binding assay, displacement of 125I-[Sar1, Ile8]-Angiotensin II, hAT1R WT. The settings on record: for inhibition at 1 µM / inhibition at 10 µM: 125I-[Sar1, Ile8]-Ang II, semi-quantitative score; for inhibition at 1 µM: compound at 1 μM, read-out: % Displaced radioligand at 1 μM; for inhibition at 10 µM: compound at 10 μM, read-out: % Displaced radioligand at 10 μM; for IC50: HEK-293 cell membranes, read-out: Binding affinity On hAT1R IC50. The procedure, abridged: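 Membranes from HEK-293 cells expressing human AT1R were incubated for one hour at 25° C, pH 7.4, with 0.05 nM radiolabelled [Sar1, Ile8]-Ang II and test ligand. Bound radioactivity was collected on PEI-soaked filters, with 10 μM unlabelled [Sar1]-Ang II defining non-specific binding. Results are percent displacement at 1 μM and […], or IC50 from eight-point duplicate curves.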

Another series concerns the target CYP2D6 (Homo sapiens (Human), UniProt P10635). Kind of series: CYP inhibition, CYP2D6. In kind it is in vitro ADME. The settings on record: CYP 2D6, ref. inhibitor conc. 0.5 μM. The method, then: The aim of this assay is to determine the inhibitory potential of a test compound. A major concern for drug-drug-interaction is cytochrome P450 inhibition. Reversible CYP inhibition was determined in human liver microsomes using specific probe substrates for human cytochrome P450 isoenzymes CYP1A2, 2C9, 2C19, 2D6 and 3A4. […]
A 10 mM stock solution of test compound is prepared in methanol. This stock is further serially diluted 1:3 in methanol and then added to mixture containing 50 mM potassium phosphate buffer pH7.4, human liver microsomes (BD Gentest) and probe substrate. After pre-warming 5 min at 37° C., the reaction is started by adding co-factor mix ([…] glucose-6-phosphate, 1.7 mg/mL NADP, 6 U/mL of glucose-6-phosphate dehydrogenase), resulting in a final concentration of test compound at 10 μM (2% MeOH).
Final concentrations of co-factor mix components are as follows: 1.56 mg/mL glucose-6-phosphate, 0.34 mg/mL NADP, 1.2 U/mL of glucose-6-phosphate dehydrogenase.
After incubation at 37° C., the reaction (aliquot of 50 μL) is terminated with 150 μL CH3CN:MeOH (2:1) solution with internal standard (warfarin for 2C9, diclofenac for all other tested isoforms). Samples are centrifuged and the supernatant fractions analyzed by LC-MS/MS.
The instrument responses (ratio of test compound and internal standard peak areas) are referenced to those for solvent controls (assumed as 100%) in order to determine the percentage reduction in probe metabolism. Percent of control activity vs. concentration plots are generated and fitted using GraphPad Prism software to generate IC50.

These results are taken from US20240368133A1, “Compounds for the Treatment of Pain, in Particular, Neuropathic Pain, and/or Other Diseases or Disorders that are Associated with AT2R and/or AT2R Mediated Signaling” (Confo Therapeutics N.V., priority 2021, published 2024).

Chain of human AT1R (P30556 whole entry): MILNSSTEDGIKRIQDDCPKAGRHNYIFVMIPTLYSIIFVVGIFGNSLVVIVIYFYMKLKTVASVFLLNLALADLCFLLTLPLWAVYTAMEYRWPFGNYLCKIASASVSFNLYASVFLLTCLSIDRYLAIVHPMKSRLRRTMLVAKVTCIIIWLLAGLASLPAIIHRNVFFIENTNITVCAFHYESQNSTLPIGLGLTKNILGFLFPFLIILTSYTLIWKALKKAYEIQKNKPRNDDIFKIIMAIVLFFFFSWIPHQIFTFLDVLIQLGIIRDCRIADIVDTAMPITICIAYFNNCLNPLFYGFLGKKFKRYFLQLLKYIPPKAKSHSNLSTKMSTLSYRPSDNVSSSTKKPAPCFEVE
Chain of human AT2R fused to Cb23 (P50052 whole entry, looked up, the tested form may be a part): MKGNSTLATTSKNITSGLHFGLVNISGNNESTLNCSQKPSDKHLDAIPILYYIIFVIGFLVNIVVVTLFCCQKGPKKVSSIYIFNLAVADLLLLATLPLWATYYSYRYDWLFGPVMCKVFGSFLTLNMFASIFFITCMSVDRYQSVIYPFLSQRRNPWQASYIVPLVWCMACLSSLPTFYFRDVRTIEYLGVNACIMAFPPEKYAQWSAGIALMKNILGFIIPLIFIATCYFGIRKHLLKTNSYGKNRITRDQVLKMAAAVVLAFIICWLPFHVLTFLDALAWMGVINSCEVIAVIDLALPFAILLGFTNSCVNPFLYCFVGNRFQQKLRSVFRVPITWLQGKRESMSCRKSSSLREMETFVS
Chain of CYP2D6 (P10635 whole entry): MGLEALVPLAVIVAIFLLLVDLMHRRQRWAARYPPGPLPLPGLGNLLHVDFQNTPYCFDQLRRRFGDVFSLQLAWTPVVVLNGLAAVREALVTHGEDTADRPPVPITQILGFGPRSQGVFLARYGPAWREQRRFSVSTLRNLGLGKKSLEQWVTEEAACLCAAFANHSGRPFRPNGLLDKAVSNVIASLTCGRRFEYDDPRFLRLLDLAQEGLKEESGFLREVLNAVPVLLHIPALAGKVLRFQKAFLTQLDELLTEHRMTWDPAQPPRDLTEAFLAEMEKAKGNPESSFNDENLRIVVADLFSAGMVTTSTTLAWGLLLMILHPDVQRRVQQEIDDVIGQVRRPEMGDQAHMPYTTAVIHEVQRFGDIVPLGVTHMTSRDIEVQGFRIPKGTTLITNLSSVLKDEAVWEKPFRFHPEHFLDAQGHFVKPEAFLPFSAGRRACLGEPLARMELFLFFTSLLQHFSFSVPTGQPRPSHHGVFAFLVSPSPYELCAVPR

In the case of `CC(C)Cc1ccc(-c2nn[nH]n2)c(N2CCN(Cc3nc4ccccc4s3)CC2)c1` [Compound A-48, 2-[[4-[5-isobutyl-2-(2H-tetrazol-5-yl)-phenyl]piperazin-1-yl]methyl]-1,3-benzothiazole], the IC50 is 0.628 µM on human AT2R fused to Cb23 and 27.8 µM at human AT1R. In addition, the microsomal CLint in series [1] came out at 32 µL/min/mg; in series [2], 13 µL/min/mg; in series [3], 14 µL/min/mg. Further, the inhibition at 1 µM on human AT1R is below 30%. For the same compound, the inhibition at 10 µM on human AT1R fell in the range of 30 to 50%.

`C=C[C@H]1C[N@@]2CC[C@H]1C[C@@H]2[C@@H](O)c1ccnc2ccc(OC)cc12` [quinidine, reference compound] gave an inhibition at 25 min, 0.5 µM at CYP2D6 of 87.3%.

On to `CC(C)Cc1ccc(-c2nn[nH]n2)c(N2CCN(Cc3nc(=O)c4cnn(C)c4[nH]3)CC2)c1` [Compound A-69, 6-[[4-[5-isobutyl-2-(2H-tetrazol-5-yl)-phenyl]piperazin-1-yl]methyl]-1-methyl-7H-pyr-azolo[3,4-d]pyrimi-din-4-one], for which the IC50 at human AT2R fused to Cb23 worked out at 10.6 µM. Also, on human AT1R, the inhibition at 1 µM was below 30% and the inhibition at 10 µM was below 30%.

As for `CC(C)Cc1cc(F)c(-c2nn[nH]n2)c(N2CCN(Cc3cccnn3)[C@H](C)C2)c1` [Compound A-175, 3-[[(2R)-4-[3-fluoro-5-isobutyl-2-(2H-tetrazol-5-yl)phenyl]-2-meth-yl-piperazin-1-yl]-methyl]pyridazine], on human AT2R fused to Cb23, the IC50 came out at 0.322 µM. Moreover, on human AT1R, the inhibition at 1 µM was below 30% and the inhibition at 10 µM was below 30%.

For `c1ccc(N2CCC(Cc3nc4ccccc4s3)CC2)c(-c2nn[nH]n2)c1` [Compound A-06, 2-[[1-[2-(2H-tetrazol-5-yl)phen-yl]-4-piperidyl]-methyl]-1,3-benzo-thiazole], at human AT2R fused to Cb23, the IC50 amounted to 16.5 µM. In addition, on human AT1R, the inhibition at 1 µM is below 30%, the inhibition at 10 µM was 30 to 50% and the IC50 came to 25.4 µM.

For `c1ccc2sc(CN3CCN(c4cc(OC5CCCC5)ccc4-c4nn[nH]n4)CC3)nc2c1` [Compound A-57, 2-[[4-[5-(cyclo-pentoxy)-2-(2H-tetrazol-5-yl)-phenyl]piperazin-1-yl]methyl]-1,3-benzothiazole], the IC50 on human AT2R fused to Cb23 turned out to be 1.9 µM. For the same compound, at human AT1R, the inhibition at 1 µM is below 30%, the inhibition at 10 µM is below 30% and the IC50 was 34.5 µM.

As to `CC(C)Cc1cc(F)c(-c2nn[nH]n2)c(N2CCN(Cc3ccc(Cl)cn3)CC2)c1` [Compound A-192, 1-[(5-chloro-2-pyridyl)methyl]-4-[3-fluoro-5-isobutyl-2-(2H-tetrazol-5-yl)phenyl]piperazine], the IC50 on human AT2R fused to Cb23 is 0.519 µM. On human AT1R, the inhibition at 1 µM was below 30% and the inhibition at 10 µM was below 30%.

For the compound `CCS(=O)(=O)NC(=O)c1ccc(OC(C)C)cc1CN1CCN(c2nc3ccccc3s2)CC1` [Compound A-39, 2-[[4-(1,3-benzothiazol-2-yl)piperazin-1-yl]methyl]-N-ethylsulfonyl-4-isopropoxy-benzamide], the concentration for half-maximal inhibition (IC50) at human AT2R fused to Cb23 was 2.81 µM. Further, at human AT1R, the inhibition at 1 µM is below 30% and the inhibition at 10 µM was below 30%.

`CC(C)Cc1ccc(-c2nn[nH]n2)c(C2CCN(Cc3cccnn3)C2)c1` (stereo not shown) [Compound A-235, 3-[[3-[5-isobutyl-2-(2H-tetrazol-5-yl)-phenyl]pyrrolidin-1-yl]methyl]pyrid-azine]: at human AT2R fused to Cb23, the IC50 was 6.89 µM. In addition, at human AT1R, the inhibition at 1 µM is below 30% and the inhibition at 10 µM is below 30%.

As to `Cc1cc(CC(C)C)cc(N2CCN(Cc3cccnn3)CC2)c1-c1nn[nH]n1` [Compound A-167, 3-[[4-[5-isobutyl-3-methyl-2-(2H-tetrazol-5-yl)phen-yl]piperazin-1-yl]-methyl]pyridazine], the 50% inhibitory concentration (IC50) at human AT2R fused to Cb23 turned out to be 0.0326 µM. On human AT1R, the inhibition at 1 µM was below 30% and the inhibition at 10 µM was below 30%.
